Source: patent publication US8492410B2, “Pyridine derivatives as sphingosine 1-phosphate (S1P) receptor modulators” (Allergan, Inc., priority 2010, dated 2013)

Biological target: T1, human S1P1 receptor (Homo sapiens, UniProt P21453)
T1 construct: expressed in transfected cells; membranes were used
Experiment: GTP γ35S binding assay for S1P1 activity
Assay type: biochemical
Conditions: activity potency from GTP γ35S binding; 5 μg membrane protein, 30 min at 25° C., test compounds 0.08 to 5,000 nM
Method: Compounds were synthesized and tested for S1P1 activity using the GTP γ^35S binding assay. These compounds may be assessed for their ability to activate or block activation of the human S1P1 receptor in cells stably expressing the S1P1 receptor.
GTP γ^35S binding was measured in the medium containing (mM) HEPES 25, pH 7.4, MgCl2 10, NaCl 100, dithitothreitol 0.5, digitonin 0.003%, 0.2 nM GTP γ^35S, and 5 μg membrane protein in a volume of 150 μl. Test compounds were included in the concentration range from 0.08 to 5,000 nM unless indicated otherwise. Membranes were incubated with 100 μM 5′-adenylylimmidodiphosphate for 30 min, and subsequently with 10 μM GDP for 10 min on ice. Drug solutions and membrane were mixed, and then reactions were initiated by adding GTP γ^35S and continued for 30 min at 25° C. Reaction mixtures were filtered over Whatman GF/B filters under vacuum, and washed three times with 3 mL of ice-cold buffer (HEPES 25, pH7.4, MgCl2 10 and NaCl 100). Filters were dried and mixed with scintillant, and counted for ^35S activity using a 8-counter. Agonist-induced GTP γ^35S binding was obtained by subtracting that in the absence of agonist. Binding data were analyzed using a non-linear regression method. In case of antagonist assay, the reaction mixture contained 10 nM S1P in the presence of test antagonist at concentrations ranging from 0.08 to 5000 nM.

T1 sequence (P21453 whole entry): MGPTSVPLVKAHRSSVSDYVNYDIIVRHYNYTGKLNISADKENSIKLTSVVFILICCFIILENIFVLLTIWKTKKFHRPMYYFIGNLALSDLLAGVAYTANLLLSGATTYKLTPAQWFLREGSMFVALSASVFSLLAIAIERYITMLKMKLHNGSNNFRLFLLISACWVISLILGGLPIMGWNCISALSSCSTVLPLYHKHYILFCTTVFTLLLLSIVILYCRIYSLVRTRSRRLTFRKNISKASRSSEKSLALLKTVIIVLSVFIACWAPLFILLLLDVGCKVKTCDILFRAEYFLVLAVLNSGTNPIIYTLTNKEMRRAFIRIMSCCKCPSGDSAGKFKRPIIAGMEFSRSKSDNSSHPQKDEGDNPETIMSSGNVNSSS

| SMILES | EC50 [nM] |
| --- | --- |
| CNc1ncccc1-c1noc(C(Cc2ccc(C)c(C)c2)c2ccc(Cl)nc2)n1 (stereo not drawn) [3-{5-[1-(6-chloropyridin-3-yl)-2-(3,4-dimethylphenyl)ethyl]-1,2,4-oxadiazol-3-yl}-N-methylpyridin-2-amine] | 274 |
| CNc1ncccc1-c1noc(C(Cc2ccc(C)cc2)c2ccsc2)n1 (stereo not drawn) [Compound 1, N-methyl-3-(5-(1-(thiophen-3-yl)-2-(p-tolyl)ethyl)-1,2,4-oxadiazol-3-yl)pyridin-2-amine] | 533 |
| CNc1ncccc1-c1noc(C(Cc2ccc(C)c(C)c2)c2ccc(C(F)(F)F)cc2)n1 (stereo not drawn) [3-(5-{2-(3,4-dimethylphenyl)-1-[4-(trifluoromethyl)phenyl]ethyl}-1,2,4-oxadiazol-3-yl)-N-methylpyridin-2-amine] | 2260 |
| CNc1ncccc1-c1noc(C(Cc2ccc(C)c(C)c2)c2cncc(Cl)c2)n1 (stereo not drawn) [3-{5-[1-(5-chloropyridin-3-yl)-2-(3,4-dimethylphenyl)ethyl]-1,2,4-oxadiazol-3-yl}-N-methylpyridin-2-amine] | 14.5 |
| CCc1cccc(C(Cc2ccc(C)c(C)c2)c2nc(-c3cccnc3NC)no2)c1 (stereo not drawn) [3-{5-[2-(3,4-dimethylphenyl)-1-(3-ethylphenyl)ethyl]-1,2,4-oxadiazol-3-yl}-N-methylpyridin-2-amine] | 61.8 |
| CNc1ncccc1-c1noc(C(Cc2ccc(C)cc2)c2cccs2)n1 (stereo not drawn) [Compound 26, N-methyl-3-(5-(1-(thiophen-2-yl)-2-(p-tolyl)ethyl)-1,2,4-oxadiazol-3-yl)pyridin-2-amine] | 928 |
| CNc1ncccc1-c1noc(C(Cc2ccc(CC(C)C)cc2)c2cccc(Cl)c2)n1 (stereo not drawn) [3-{5-[1-(3-chlorophenyl)-2-(4-isobutylphenyl)ethyl]-1,2,4-oxadiazol-3-yl}-N-methylpyridin-2-amine] | 2090 |
| CNc1ncccc1-c1noc(C(Cc2ccc(C)c(C)c2)c2ccc(OC)cc2)n1 (stereo not drawn) [3-{5-[2-(3,4-dimethylphenyl)-1-(4-methoxyphenyl)ethyl]-1,2,4-oxadiazol-3-yl}-N-methylpyridin-2-amine] | 1330 |
| CNc1ncccc1-c1noc(C(Cc2ccccc2)c2ccccc2)n1 (stereo not drawn) [Compound 24, 3-(5-(1,2-diphenylethyl)-1,2,4-oxadiazol-3-yl)-N-methylpyridin-2-amine] | 1240 |
| CNc1ncccc1-c1noc(C(CC2CCCCC2)c2cccc(Cl)c2)n1 (stereo not drawn) [3-{5-[1-(3-chlorophenyl)-2-cyclohexylethyl]-1,2,4-oxadiazol-3-yl}-N-methylpyridin-2-amine] | 348 |
| CNc1ncccc1-c1noc(C(Cc2ccc(C)c(C)c2)c2cccc(OC)c2)n1 (stereo not drawn) [3-{5-[2-(3,4-dimethylphenyl)-1-(3-methoxyphenyl)ethyl]-1,2,4-oxadiazol-3-yl}-N-methylpyridin-2-amine] | 77.6 |
| CNc1ncccc1-c1noc(C(Cc2ccc(C)c(C)c2)c2ccc(Cl)cc2)n1 (stereo not drawn) [Compound 10, 3-{5-[2-(3,4-dimethylphenyl)-1-(4-chlorophenyl)ethyl]-1,2,4-oxadiazol-3-yl}-N-methylpyridin-2-amine] | 470 |
| CNc1ncccc1-c1noc(C(Cc2ccc(C)c(C)c2)c2ccccc2)n1 (stereo not drawn) [3-{5-[2-(3,4-dimethylphenyl)-1-phenylethyl]-1,2,4-oxadiazol-3-yl}-N-methylpyridin-2-amine] | 912 |
| CNc1ncccc1-c1noc(C(Cc2ccc(C)c(C)c2)c2cccs2)n1 (stereo not drawn) [Compound 27, 3-(5-(2-(3,4-dimethylphenyl)-1-(thiophen-2-yl)ethyl)-1,2,4-oxadiazol-3-yl)-N-methylpyridin-2-amine] | 524 |
| CNc1ncccc1-c1noc(C(Cc2ccc(C)cc2)c2cccc(Cl)c2)n1 (stereo not drawn) [3-{5-[1-(3-chlorophenyl)-2-(4-methylphenyl)ethyl]-1,2,4-oxadiazol-3-yl}-N-methylpyridin-2-amine] | 78.3 |
| CNc1ncccc1-c1noc(C(Cc2ccc(C)c(C)c2)c2cccc(F)c2)n1 (stereo not drawn) [3-{5-[2-(3,4-dimethylphenyl)-1-(3-fluorophenyl)ethyl]-1,2,4-oxadiazol-3-yl}-N-methylpyridin-2-amine] | 35.7 |
| CNc1ncccc1-c1noc(C(Cc2ccc(C)c(C)c2)c2ccsc2)n1 (stereo not drawn) [Compound 29, 3-(5-(2-(3,4-dimethylphenyl)-1-(thiophen-3-yl)ethyl)-1,2,4-oxadiazol-3-yl)-N-methylpyridin-2-amine] | 296 |
| CNc1ncccc1-c1noc(C(Cc2ccccc2)c2cccc(Cl)c2)n1 (stereo not drawn) [3-{5-[1-(3-chlorophenyl)-2-phenylethyl]-1,2,4-oxadiazol-3-yl}-N-methylpyridin-2-amine] | 112 |
| CNc1ncccc1-c1noc(C(CC2CCCC2)c2cccc(Cl)c2)n1 (stereo not drawn) [3-{5-[1-(3-chlorophenyl)-2-cyclopentylethyl]-1,2,4-oxadiazol-3-yl}-N-methylpyridin-2-amine] | 1860 |

More lines, in order of falling EC50, values ahead:

| EC50 [nM] | SMILES |
| --- | --- |
| 2760 | CNc1ncccc1-c1noc(C(Cc2cc(C)cc(C)c2)c2ccc(Cl)nc2)n1 (stereo not drawn) [3-{5-[1-(6-chloropyridin-3-yl)-2-(3,5-dimethylphenyl)ethyl]-1,2,4-oxadiazol-3-yl}-N-methylpyridin-2-amine] |
| 2400 | CNc1ncccc1-c1noc(C(Cc2ccccc2)c2ccc(Cl)cc2)n1 (stereo not drawn) [3-{5-[1-(4-chlorophenyl)-2-phenylethyl]-1,2,4-oxadiazol-3-yl}-N-methylpyridin-2-amine] |
| 2020 | CNc1ncccc1-c1noc(C(Cc2ccc(Cl)c(Cl)c2)c2ccc(Cl)cc2)n1 (stereo not drawn) [3-{5-[1-(4-chlorophenyl)-2-(3,4-dichlorophenyl)ethyl]-1,2,4-oxadiazol-3-yl}-N-methylpyridin-2-amine] |
| 167 | CNc1ncccc1-c1noc(C(Cc2ccc(C)c(C)c2)c2cccc(C(F)(F)F)c2)n1 (stereo not drawn) [3-(5-{2-(3,4-dimethylphenyl)-1-[3-(trifluoromethyl)phenyl]ethyl}-1,2,4-oxadiazol-3-yl)-N-methylpyridin-2-amine] |
| 161 | CNc1ncccc1-c1noc(C(Cc2ccc(C)c(C)c2)c2cc(C)cc(C)c2)n1 (stereo not drawn) [Compound 25, 3-(5-(2-(3,4-dimethylphenyl)-1-(3,5-dimethylphenyl)ethyl)-1,2,4-oxadiazol-3-yl)-N-methylpyridin-2-amine] |
| 125 | CNc1ncccc1-c1noc(C(Cc2cccc(C)c2)c2cccc(Cl)c2)n1 (stereo not drawn) [3-{5-[1-(3-chlorophenyl)-2-(3-methylphenyl)ethyl]-1,2,4-oxadiazol-3-yl}-N-methylpyridin-2-amine] |
| 86.4 | CNc1ncccc1-c1noc(C(Cc2ccc(C)c(C)c2)c2cccc([N+](=O)[O-])c2)n1 (stereo not drawn) [3-{5-[2-(3,4-dimethylphenyl)-1-(3-nitrophenyl)ethyl]-1,2,4-oxadiazol-3-yl}-N-methylpyridin-2-amine] |
| 66.4 | CNc1ncccc1-c1noc(C(Cc2ccc(C)c(C)c2)c2cccc(Cl)c2)n1 (stereo not drawn) [Compound 2, 3-{5-[2-(3,4-dimethylphenyl)-1-(3-chlorophenyl)ethyl]-1,2,4-oxadiazol-3-yl}-N-methylpyridin-2-amine] |
| 50.6 | CNc1ncccc1-c1noc(C(Cc2ccc(C)c(C)c2)c2cccc(Br)c2)n1 (stereo not drawn) [Compound 3, 3-{5-[2-(3,4-dimethylphenyl)-1-(3-bromophenyl)ethyl]-1,2,4-oxadiazol-3-yl}-N-methylpyridin-2-amine] |
| 50.2 | CNc1ncccc1-c1noc(C(Cc2ccc(C)c(C)c2)c2cccc(C)c2)n1 (stereo not drawn) [3-{5-[2-(3,4-dimethylphenyl)-1-(3-methylphenyl)ethyl]-1,2,4-oxadiazol-3-yl}-N-methylpyridin-2-amine] |
| 12 | CNc1ncccc1-c1noc(C(Cc2ccc(C)c(C)c2)c2cc(F)cc(F)c2)n1 (stereo not drawn) [Compound 23, 3-(5-(1-(3,5-difluorophenyl)-2-(3,4-dimethylphenyl)ethyl)-1,2,4-oxadiazol-3-yl)-N-methylpyridin-2-amine] |
